Results as given in ChEMBL document CHEMBL1125888, “Inhibitors of cholesterol biosynthesis. 3. Tetrahydro-4-hydroxy-6-[2-(1H-pyrrol-1-yl)ethyl]-2H-pyran-2-one inhibitors of HMG-CoA reductase. 2. Effects of introducing substituents at positions three and four of the pyrrole nucleus” (J Med Chem, 1991).
pIC50: −log10 of the molar value.

Legend:
[1] = biological target: T1, 3-hydroxy-3-methylglutaryl-coenzyme A reductase (Rattus norvegicus, UniProt P51639); test: Inhibition of HMG-CoA reductase activity in partially purified rat liver
T1 sequence (P51639 whole entry): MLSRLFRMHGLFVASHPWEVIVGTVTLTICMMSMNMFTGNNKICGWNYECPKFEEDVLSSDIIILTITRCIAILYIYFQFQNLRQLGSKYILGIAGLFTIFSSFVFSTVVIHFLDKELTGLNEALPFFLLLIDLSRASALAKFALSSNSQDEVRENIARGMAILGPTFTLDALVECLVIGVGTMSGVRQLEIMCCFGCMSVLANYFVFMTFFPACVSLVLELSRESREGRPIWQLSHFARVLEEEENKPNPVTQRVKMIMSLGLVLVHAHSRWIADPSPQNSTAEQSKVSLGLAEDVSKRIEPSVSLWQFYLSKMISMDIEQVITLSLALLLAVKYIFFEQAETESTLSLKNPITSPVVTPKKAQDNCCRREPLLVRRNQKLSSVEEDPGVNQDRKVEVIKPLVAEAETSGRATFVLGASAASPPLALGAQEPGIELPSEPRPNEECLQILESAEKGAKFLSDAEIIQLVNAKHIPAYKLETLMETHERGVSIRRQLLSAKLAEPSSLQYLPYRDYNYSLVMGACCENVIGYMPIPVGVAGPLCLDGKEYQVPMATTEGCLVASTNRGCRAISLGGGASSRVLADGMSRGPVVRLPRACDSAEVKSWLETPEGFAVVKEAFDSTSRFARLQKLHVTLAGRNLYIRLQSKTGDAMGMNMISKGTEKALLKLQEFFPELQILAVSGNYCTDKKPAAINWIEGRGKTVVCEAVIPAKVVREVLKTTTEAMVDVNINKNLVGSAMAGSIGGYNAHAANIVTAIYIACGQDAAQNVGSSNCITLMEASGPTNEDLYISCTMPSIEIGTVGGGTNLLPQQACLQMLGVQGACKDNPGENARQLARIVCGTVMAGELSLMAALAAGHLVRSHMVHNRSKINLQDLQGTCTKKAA

[2] = biological target: T2, 3-hydroxy-3-methylglutaryl-coenzyme A reductase (Rattus norvegicus) (UniProt P51639); test: Relative potency against HMG-CoA reductase activity in partially purified rat liver; format: functional
T2 sequence (whole entry): T1 sequence (P51639 whole entry)

pIC50 [1] | Relative potency [2] | SMILES
7.34 | 76 | CC(C)c1cc(-c2ccccn2)c(-c2ccc(F)cc2)n1CC[C@@H]1C[C@@H](O)CC(=O)O1
6.10 | 8.8 | CC(C)c1cc(C(=O)C(F)(F)F)c(-c2ccc(F)cc2)n1CC[C@@H]1C[C@@H](O)CC(=O)O1
6.36 | – | CC(C)c1c(C(=O)Nc2ccccc2)c(-c2ccccc2)c(-c2ccc(F)cc2)n1CC[C@@H]1C[C@@H](O)CC(=O)O1 (stereo in doubt; (-)-33) [ATORVASTATIN LACTONE]
7.30 | 100 | CCOC(=O)c1c(-c2ccccc2)c(C(C)C)n(CC[C@@H]2C[C@@H](O)CC(=O)O2)c1-c1ccc(F)cc1
7.60 | – | CC(C)c1c(C(=O)Nc2ccccc2)c(-c2ccccc2)c(-c2ccc(F)cc2)n1CC[C@@H]1C[C@@H](O)CC(=O)O1 (racemic) [ATORVASTATIN LACTONE]
7.55 | 78.6 | CC(C)c1c(Cl)c(Cl)c(-c2ccc(F)cc2)n1CC[C@@H]1C[C@@H](O)CC(=O)O1
– | 13.9 | CC(C)c1c(C(=O)Nc2ccccc2)c(-c2ccccc2)c(-c2ccc(F)cc2)n1CC[C@@H]1C[C@@H](O)CC(=O)O1 (stereo in doubt; (-)-33)
– | 500 | CC(C)c1c(C(=O)Nc2ccccc2)c(-c2ccccc2)c(-c2ccc(F)cc2)n1CC[C@@H]1C[C@@H](O)CC(=O)O1 (stereo in doubt; (+)-33)
8.15 | – | CC(C)c1c(C(=O)Nc2ccccc2)c(-c2ccccc2)c(-c2ccc(F)cc2)n1CC[C@@H]1C[C@@H](O)CC(=O)O1 (stereo in doubt; (+)-33) [ATORVASTATIN LACTONE]
6.70 | 35.5 | CCOC(=O)c1c(-c2ccccc2)c(-c2ccc(F)cc2)n(CC[C@@H]2C[C@@H](O)CC(=O)O2)c1C(C)C
6.51 | 2.1 | CC(C)c1cc(-c2ccncc2)c(-c2ccc(F)cc2)n1CC[C@@H]1C[C@@H](O)CC(=O)O1
5.40 | 0.6 | CCOC(=O)c1c(-c2ccccc2)c(-c2ccccc2)n(CC[C@@H]2C[C@@H](O)CC(=O)O2)c1C
7.52 | 100 | CC[C@H](C)C(=O)O[C@H]1CCC=C2C=C[C@H](C)[C@H](CC[C@@H]3C[C@@H](O)CC(=O)O3)[C@H]21 [MEVASTATIN]
7.55 | 78.6 | CC(C)c1c(Br)c(Br)c(-c2ccc(F)cc2)n1CC[C@@H]1C[C@@H](O)CC(=O)O1
6.92 | 36.3 | CC(C)c1c(-c2ccccc2)cc(-c2ccc(F)cc2)n1CC[C@@H]1C[C@@H](O)CC(=O)O1
6.05 | 6.3 | CCOC(=O)c1c(-c2ccccc2)c(-c2ccccc2)n(CC[C@@H]2C[C@@H](O)CC(=O)O2)c1CC
6.85 | 16 | Cc1c(C)c(C(C)C)n(CC[C@@H]2C[C@@H](O)CC(=O)O2)c1-c1ccc(F)cc1
7.40 | 24 | CC(C)c1c(C(=O)OCc2ccccc2)c(-c2ccccc2)c(-c2ccc(F)cc2)n1CC[C@@H]1C[C@@H](O)CC(=O)O1
6.46 | 2.8 | CCOC(=O)c1c(C(=O)OCC)c(C(C)C)n(CC[C@@H]2C[C@@H](O)CC(=O)O2)c1-c1ccc(F)cc1
6.55 | 16.2 | CCOC(=O)c1c(-c2ccc(C#N)cc2)c(-c2ccc(F)cc2)n(CC[C@@H]2C[C@@H](O)CC(=O)O2)c1C(C)C
6.46 | 12.5 | CC(C)c1cc(-c2ccccc2)c(-c2ccc(F)cc2)n1CC[C@@H]1C[C@@H](O)CC(=O)O1
– | 10.9 | CC(C)c1ccc(-c2ccc(F)cc2)n1CC[C@@H]1C[C@@H](O)CC(=O)O1
6.77 | 23.5 | CCOC(=O)c1c(-c2ccccc2)c(-c2ccccc2)n(CC[C@@H]2C[C@@H](O)CC(=O)O2)c1C(C)C
6.74 | 14.3 | COC(=O)c1c(C(=O)OC)c(C(C)C)n(CC[C@@H]2C[C@@H](O)CC(=O)O2)c1-c1ccc(F)cc1
– | 81.4 | CC(C)c1c(C(=O)Nc2ccccc2)c(-c2ccccc2)c(-c2ccc(F)cc2)n1CC[C@@H]1C[C@@H](O)CC(=O)O1 (racemic)
7.15 | 9.4 | CC(C)c1cc(-c2cccnc2)c(-c2ccc(F)cc2)n1CC[C@@H]1C[C@@H](O)CC(=O)O1
